{
  "source": "patent US20260183277A1",
  "about": "“ANTIVIRAL PHARMACEUTICAL COMPOSITION COMPRISING ERRy INHIBITOR AS ACTIVE INGREDIENT” (priority 2024, published 2026)",
  "key": {"[1]": {"tested_on": "ERRγ promoter", "format": "cell-based"}, "[2]": {"tested_on": "c-Jun occupancy on the AP1 regulatory element site of the ERRγ promoter", "format": "cell-based"}, "[3]": {"tested_on": "ROS", "format": "cell-based"}, "[4]": {"tested_on": "SARS-CoV-2 KCDC03 strain", "assay": "SARS-CoV-2 KCDC03 challenge of Syrian hamsters", "format": "in vivo", "details": "for reduction of gross lung lesions, individual therapy: strain not stated"}, "[5]": {"tested_on": "IAV HA protein", "format": "cell-based, influenza A virus"}, "[6]": {"tested_on": "BCoV KWD strain", "format": "cell-based, bovine coronavirus", "details": "maximum dose of 20 μM"}, "[7]": {"tested_on": "SARS-CoV-2-infected cells", "assay": "Double-membrane vesicle / dsRNA formation by TEM and confocal microscopy", "format": "cell-based"}, "[8]": {"tested_on": "IAV-infected A549 cells", "format": "cell-based, human"}, "[9]": {"biological_target": "T1, ERRγ (Homo sapiens, UniProt P62508)", "T1 sequence (P62508 1-458)": "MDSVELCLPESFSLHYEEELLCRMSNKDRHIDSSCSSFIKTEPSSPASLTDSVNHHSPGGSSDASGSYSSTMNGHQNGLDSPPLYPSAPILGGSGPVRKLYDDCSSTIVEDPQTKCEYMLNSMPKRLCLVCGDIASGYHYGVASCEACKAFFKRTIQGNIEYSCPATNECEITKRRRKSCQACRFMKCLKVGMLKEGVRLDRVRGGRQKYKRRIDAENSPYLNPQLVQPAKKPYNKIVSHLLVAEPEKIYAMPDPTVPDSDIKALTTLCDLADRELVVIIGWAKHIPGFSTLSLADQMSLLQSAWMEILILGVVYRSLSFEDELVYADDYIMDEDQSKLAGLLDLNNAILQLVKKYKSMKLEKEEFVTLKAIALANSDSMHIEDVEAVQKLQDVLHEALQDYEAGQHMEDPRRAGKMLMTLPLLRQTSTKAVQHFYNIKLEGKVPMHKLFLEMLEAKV", "details": "compared with lead compound GSK5182; cited from earlier work"}, "[10]": {"tested_on": "SARS-CoV-2-infected Vero E6 cells", "assay": "Eicosanoid and cytokine ELISA in SARS-CoV-2-infected Vero E6 cells", "format": "cell-based, monkey"}, "[11]": {"assay": "Lung distribution after administration to animals", "details": "in vivo experiments", "source_text": "[…]. […] […]"}, "[12]": {"tested_on": "influenza A virus (IAV) PR8 strain", "format": "cell-based"}, "[13]": {"tested_on": "intracellular fatty acid oxidation (FAO)", "format": "cell-based"}, "[14]": {"tested_on": "intracellular triacylglycerol (TAG)", "format": "cell-based", "details": "virus-infected cells; 20 μM"}, "[15]": {"tested_on": "human SREBP1c gene promoter", "format": "cell-based", "details": "cells infected with each individual virus; 20 μM"}, "[16]": {"tested_on": "SREBP1c, SREBP1a, FASN, DGAT1, SCD1", "format": "cell-based"}, "[17]": {"tested_on": "free fatty acids (FFA)", "format": "cell-based"}, "[18]": {"details": "mice"}, "[19]": {"tested_on": "PEDV QIAP1401 strain", "format": "cell-based, porcine epidemic diarrhea coronavirus", "details": "maximum dose of 20 μM"}, "[20]": {"tested_on": "SARS-CoV-2 S protein", "format": "cell-based"}, "[21]": {"tested_on": "PSaV Cowden strain", "assay": "microbe, parasite or virus in culture", "format": "cell-based, porcine sapovirus", "details": "Sapporo virus, MOI=0.1 FFU, viral yield in cell supernatant, read-out: half-maximal inhibitory concentration (IC50)"}},
  "note": "Where two headings read alike, the source gives them in different places.",
  "data": [
    {"smiles": "CC(=O)N[C@@H](CS)C(=O)O", "note": "[NAC, N-acetylcysteine]", "values": [
      {"measurement": "virus-induced activation of ERRγ promoter and ERRγ expression", "setting": "[1]", "result": "attenuated"},
      {"measurement": "virus-increased occupancy of c-Jun on the AP1 regulatory element site of the ERRγ promoter", "setting": "[2]", "result": "markedly blocked"},
      {"measurement": "virus-induced ROS generation", "setting": "[3]", "result": "significantly suppressed"}
    ]},
    {"smiles": "CCC(CC)COC(=O)[C@H](C)N[P@](=O)(OC[C@H]1O[C@@](C#N)(c2ccc3c(N)ncnn23)[C@H](O)[C@@H]1O)Oc1ccccc1", "note": "[remdesivir, reference compound]", "values": [
      {"measurement": "reduction of gross lung lesions, individual therapy", "setting": "[4]; remdesivir 2.5 mg kg^−1 d^−1 alone", "result": 20, "unit": "%"}
    ]},
    {"smiles": "CC(C)N1CCN(c2ccc(/C(=C(/CCCO)c3ccccc3)c3ccc(O)cc3)cc2)CC1", "note": "[DN200434]", "values": [
      {"measurement": "palmitoylation of IAV HA proteins", "setting": "[5]", "result": "significantly inhibited"},
      {"measurement": "reduction in viral genome copy numbers", "setting": "[6]", "result": "more than 2.0 log 10 steps"},
      {"measurement": "reduction in viral titers", "setting": "[6]", "result": "more than 2.0 log 10 steps"},
      {"measurement": "SARS-CoV-2-induced perinuclear DMV clusters containing viral double-stranded RNA", "setting": "[7]; TEM and confocal microscopy", "result": "significant reduction"},
      {"measurement": "number of progeny viral particles", "setting": "[7]; TEM, vs vehicle-treated virus-infected cells", "result": "notable reduction"},
      {"measurement": "levels of PGE2 and LTB4", "setting": "[8]", "result": "significantly reduced"},
      {"measurement": "proinflammatory cytokines IFN-α, IFN-β, TNF-α, IL-6, and MCP-1", "setting": "[8]", "result": "significant suppression"},
      {"measurement": "functional IC50 relative to GSK5182", "setting": "[9]", "result": 12, "unit": "fold"},
      {"measurement": "IFN-α and IFN-β levels", "setting": "[10]; SARS-CoV-2-infected Vero cells", "result": "remained unchanged"},
      {"measurement": "TNF-α, IL-6, and MCP-1 levels", "setting": "[10]; SARS-CoV-2-infected Vero cells", "result": "significantly reduced"},
      {"measurement": "levels of PGE2 and LTB4", "setting": "[10]; SARS-CoV-2-infected cells", "result": "significantly reduced"},
      {"measurement": "detection in the lungs via the bloodstream", "setting": "[11]", "result": "detected in sufficient quantities in the lungs"},
      {"measurement": "viral genome replication, progeny production, and protein synthesis of IAV", "setting": "[12]", "result": "dose-dependent suppression"},
      {"measurement": "energy production through 3-oxidation in the mitochondria from the FFA substrate", "setting": "[13]", "result": "inhibited"},
      {"measurement": "signs of toxicity", "setting": "Syrian hamsters, i.p. 40 mg kg^−1 d^−1, 14 days", "result": "did not induce any signs of toxicity"},
      {"measurement": "gross or histopathological changes in vital organs (liver, lung, kidney, heart, spleen)", "setting": "hamsters", "result": "did not result in gross or histopathological changes"},
      {"measurement": "lipid accumulation (intracellular TAG)", "setting": "[14]", "result": "effectively attenuated"},
      {"measurement": "activity of the SREBP1c gene promoter", "setting": "[15]", "result": "markedly suppressed"},
      {"measurement": "SREBP1c expression activated by individual virus infections", "setting": "[16]", "result": "reduced"},
      {"measurement": "basal level of SREBP1a mRNA", "setting": "[16]; 20 μM", "result": "not affected"},
      {"measurement": "lipogenic gene activation (FASN, DGAT1, SCD1 mRNA)", "setting": "[16]; 20 μM", "result": "effectively attenuated"},
      {"measurement": "synthesis of representative fatty acids induced by infection", "setting": "[17]", "result": "significantly interrupted"},
      {"measurement": "level of selected FFA", "setting": "[17]; 20 μM", "result": "either restored the level of selected FFA to that of mock control cells or decreased it below mock control levels"},
      {"measurement": "reduction in gross lung lesions", "setting": "[4]; 40 mg kg^−1 d^−1 i.p., twice a day for four and a half days, vs virus-challenged, vehicle-treated control", "result": 92, "unit": "%"},
      {"measurement": "reduction of gross lung lesions, individual therapy", "setting": "[4]; DN200434 40 mg kg^−1 d^−1 alone (combination study)", "result": 50, "unit": "%"},
      {"measurement": "IFN-α and IFN-β levels in BALF", "setting": "[4]; hamsters, i.p., vs vehicle-treated controls", "result": "no effect"},
      {"measurement": "gross or histopathological changes in vital organs (liver, lung, kidney, heart, spleen)", "setting": "[18]", "result": "did not result in gross or histopathological changes"},
      {"measurement": "signs of toxicity", "setting": "[18]; i.p. 20 mg kg^−1 d^−1, 14 days", "result": "did not induce any signs of toxicity"},
      {"measurement": "reduction in viral genome copy numbers", "setting": "[19]", "result": "more than 2.0 log 10 steps"},
      {"measurement": "reduction in viral titers", "setting": "[19]", "result": "more than 2.0 log 10 steps"},
      {"measurement": "palmitoylation of SARS-CoV-2 S protein", "setting": "[20]", "result": "significantly inhibited"},
      {"measurement": "IC50", "setting": "[21]", "result": "6.24 ± 1.07", "unit": "µM"}
    ]}
  ]
}
